The structures appear in SMILES notation. Some results are limits rather than exact numbers.

The target of test [1] is Rho-associated protein kinase 2 (Homo sapiens, UniProt O75116). Description: (§1) ELISA Assay: ROCK Substrate Coated Plate (Part No 241601): One strip well 96-well plate pre-coated with recombinant MYPT1.Buffer: 25 mM Tris, pH 7.5, 10 mM MgCl2, 5 mM Glycerol-2-Phosphate, 0.1 mM Na3VO4; 1% DMSO; 2.5 mM DTT; (Enzyme: ROCK active-II) (Cell Biolabs, Catalog #STA-406, Part No. 241505) 0.1 ng/μl.ATP Solution (Part No. 241604): 100 mM ATP. Final concentration of ATP in reaction mixture: 250 μM.Anti-phospho-MYPT1 (Thr696) (Part No. 241603).Secondary Antibody, HRP Conjugate (Part No. 231003).Biotinylated substrate, diluted to 0.25 μM with buffer described above (without ATP).Steps:1. Purified kinase or cell lysate sample can be used directly in the kinase assay or further diluted with 1× Kinase Buffer. Each sample should be assayed in duplicate.2. Add 90 μL of the diluted active ROCK-II positive control or unknown ROCK samples to the wells of the substrate plate.3. Initiate the kinase reaction by adding 10 μL of the 10× Kinase Reaction Buffer containing DTT and ATP. Mix well.4. Cover with a plate cover and incubate the wells at 30° C. for 30-60 minutes with gentle agitation.5. Stop kinase reaction by flicking out the content or by adding 50 μL of 0.5M EDTA, pH 8.0, to each well.6. Remove the plate cover and empty wells. Wash microwell strips 3 times with 250 μL 1× Wash Buffer per well with thorough aspiration between each wash. After the last wash, empty wells and tap microwell strips on absorbent pad or paper towel to remove excess 1× Wash Buffer.7. Add 100 μL of the diluted anti-phospho-MYPT1 (Thr696) antibody to each well.8. Cover with the plate cover and incubate at room temperature for 1 hour on an orbital shaker.9. Remove the plate cover and empty wells. Wash the strip wells 3 times according to step 6 above.10. Add 100 μL of the diluted HRP-conjugated secondary antibody to each well.11. Cover with the plate cover and incubate at room temperature for 1 hour on an orbital shaker.12. Remove the plate cover and empty wells. Wash microwell strips 3 times according to step 6 above. Proceed immediately to the next step.13. Warm Substrate Solution to room temperature. Add 100 μL of Substrate Solution to each well, including the blank wells. Incubate at room temperature for 5-20 minutes on an orbital shaker.14. Stop the enzyme reaction by adding 100 μL of Stop Solution into each well, including the blank wells. Results should be read immediately (color will fade over time).15. Read absorbance of each microwell on a spectrophotometer using 450 nm as the primary wave length.

In test [2] the target is Rho-associated protein kinase 1 (Homo sapiens, UniProt Q13464). The test is described as §1.
Sequence of Rho-associated protein kinase 1 (Q13464 whole entry): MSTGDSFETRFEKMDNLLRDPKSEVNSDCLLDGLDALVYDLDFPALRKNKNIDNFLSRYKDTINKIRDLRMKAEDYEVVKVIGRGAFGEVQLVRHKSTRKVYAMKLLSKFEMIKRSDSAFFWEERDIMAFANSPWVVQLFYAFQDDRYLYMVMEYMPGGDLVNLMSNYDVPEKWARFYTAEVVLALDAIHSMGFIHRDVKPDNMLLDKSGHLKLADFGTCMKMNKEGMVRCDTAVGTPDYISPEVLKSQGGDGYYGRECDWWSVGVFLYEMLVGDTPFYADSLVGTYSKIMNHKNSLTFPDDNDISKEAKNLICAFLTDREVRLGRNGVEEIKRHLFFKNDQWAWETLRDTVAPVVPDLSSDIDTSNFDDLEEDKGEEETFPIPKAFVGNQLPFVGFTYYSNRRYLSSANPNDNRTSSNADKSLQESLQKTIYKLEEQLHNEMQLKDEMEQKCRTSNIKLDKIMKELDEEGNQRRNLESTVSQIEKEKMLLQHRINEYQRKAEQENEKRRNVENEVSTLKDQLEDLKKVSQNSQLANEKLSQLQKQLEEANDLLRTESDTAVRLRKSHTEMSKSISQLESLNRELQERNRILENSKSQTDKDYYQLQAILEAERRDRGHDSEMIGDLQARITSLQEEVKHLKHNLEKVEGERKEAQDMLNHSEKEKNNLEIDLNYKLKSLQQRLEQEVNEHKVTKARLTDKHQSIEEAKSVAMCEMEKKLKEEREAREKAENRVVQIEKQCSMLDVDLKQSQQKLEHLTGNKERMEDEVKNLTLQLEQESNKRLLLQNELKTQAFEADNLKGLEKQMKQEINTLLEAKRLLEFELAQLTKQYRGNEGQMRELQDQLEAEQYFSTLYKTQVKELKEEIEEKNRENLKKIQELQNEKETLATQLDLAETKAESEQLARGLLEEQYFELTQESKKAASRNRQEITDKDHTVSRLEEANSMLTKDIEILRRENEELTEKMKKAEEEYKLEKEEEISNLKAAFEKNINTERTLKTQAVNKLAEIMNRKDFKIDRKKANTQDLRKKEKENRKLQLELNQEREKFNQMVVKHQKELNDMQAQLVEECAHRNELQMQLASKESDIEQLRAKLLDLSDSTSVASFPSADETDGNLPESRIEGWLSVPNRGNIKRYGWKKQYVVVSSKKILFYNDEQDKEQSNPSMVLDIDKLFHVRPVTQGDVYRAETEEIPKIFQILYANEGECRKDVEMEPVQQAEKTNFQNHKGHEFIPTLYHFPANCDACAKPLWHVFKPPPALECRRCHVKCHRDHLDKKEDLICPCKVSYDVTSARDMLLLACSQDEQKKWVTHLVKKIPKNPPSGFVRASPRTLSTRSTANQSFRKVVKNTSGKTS

Sequence of Rho-associated protein kinase 2 (O75116 whole entry): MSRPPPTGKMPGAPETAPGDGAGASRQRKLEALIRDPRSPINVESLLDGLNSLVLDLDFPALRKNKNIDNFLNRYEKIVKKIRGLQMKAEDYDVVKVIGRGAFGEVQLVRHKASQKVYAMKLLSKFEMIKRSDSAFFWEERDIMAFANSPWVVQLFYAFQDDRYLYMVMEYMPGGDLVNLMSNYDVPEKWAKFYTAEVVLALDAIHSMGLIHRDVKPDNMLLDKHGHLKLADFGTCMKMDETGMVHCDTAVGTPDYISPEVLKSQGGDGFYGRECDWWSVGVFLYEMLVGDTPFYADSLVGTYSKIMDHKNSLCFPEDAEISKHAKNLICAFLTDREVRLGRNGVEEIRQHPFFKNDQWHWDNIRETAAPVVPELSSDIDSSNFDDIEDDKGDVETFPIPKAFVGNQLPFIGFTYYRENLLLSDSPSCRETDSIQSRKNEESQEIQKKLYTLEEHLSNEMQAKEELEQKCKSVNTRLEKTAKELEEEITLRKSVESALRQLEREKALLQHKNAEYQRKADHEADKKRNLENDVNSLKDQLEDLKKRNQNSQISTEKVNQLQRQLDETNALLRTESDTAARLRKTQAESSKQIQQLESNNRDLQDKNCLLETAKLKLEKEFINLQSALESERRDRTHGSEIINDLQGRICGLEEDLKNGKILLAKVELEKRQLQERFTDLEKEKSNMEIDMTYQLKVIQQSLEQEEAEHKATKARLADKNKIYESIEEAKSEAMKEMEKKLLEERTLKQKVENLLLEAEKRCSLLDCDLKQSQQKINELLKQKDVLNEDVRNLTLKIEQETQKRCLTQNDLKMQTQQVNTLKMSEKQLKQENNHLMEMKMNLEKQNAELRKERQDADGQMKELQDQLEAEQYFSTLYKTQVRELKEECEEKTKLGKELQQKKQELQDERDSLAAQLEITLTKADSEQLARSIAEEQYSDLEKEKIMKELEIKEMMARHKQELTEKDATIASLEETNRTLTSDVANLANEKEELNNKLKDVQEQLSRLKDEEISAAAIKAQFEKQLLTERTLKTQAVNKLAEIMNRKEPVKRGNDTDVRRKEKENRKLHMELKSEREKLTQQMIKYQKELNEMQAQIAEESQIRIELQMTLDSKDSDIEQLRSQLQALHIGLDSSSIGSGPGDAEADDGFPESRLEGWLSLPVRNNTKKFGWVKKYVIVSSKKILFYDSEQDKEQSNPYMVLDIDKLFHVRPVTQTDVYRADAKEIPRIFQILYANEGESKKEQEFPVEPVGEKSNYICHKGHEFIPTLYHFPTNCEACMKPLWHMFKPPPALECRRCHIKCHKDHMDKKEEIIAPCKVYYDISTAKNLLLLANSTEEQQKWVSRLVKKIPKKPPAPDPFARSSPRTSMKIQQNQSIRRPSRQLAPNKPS

In the case of `COC(=O)c1ccc(CN(CCO)C(=O)Nc2ccc3cnccc3c2)cc1`, in test [1], the IC50 was above 1 µM.
Still for that read-out and setting: next, `CN(C)CCN(Cc1ccc(Oc2ccc(C#N)cc2)cc1)C(=O)Nc1ccc2cnccc2c1`: above 1 µM; `CN(C)CCN(Cc1ccccc1)C(=O)Nc1ccc2cnccc2c1`: above 1 µM.
Turning to `NCCN(Cc1ccc(F)cc1)C(=O)Nc1cccc2cnccc12`, the IC50 in test [2] was above 1 µM.

By IC50 is commonly meant the point on the concentration scale where inhibition reaches its midpoint.

For the origin of these results see ChEMBL document CHEMBL5727779, “Compounds for inhibiting AGC kinase and pharmaceutical compositions comprising the same” (2020).
